Experimental findings from US20240010726A1, “LFA-1 SIGNALLING MEDIATOR FOR USE IN CANCER THERAPY” (Universität Basel, priority 2020, published 2024) are described below.

The structures appear in SMILES notation.

Test [1] deals with human EM CD8 T cells. As to the kind of experiment: Flow cytometry of surface activation markers on EM CD8 T cells. It is filed as cell-based. Conditions: 24 h plate-bound anti-CD3 and soluble anti-CD28 Ab; 0 mM vs 1.2 mM Mg^2+. How it is done: FIG. 2: Extracellular magnesium promotes memory-specific activation via LFA-1. Glycolytic switch of human EM CD8 T cells (a) and naïve CD8 T cells (b) subsets upon injection of anti-CD3 Ab only, or anti-CD3 and anti-CD28 Ab, was assessed by metabolic flux analysis in medium containing either 1.2 mM Mg^2+, 0 mM Mg^2+, or medium which was reconstituted from 0 mM to 1.2 mM Mg^2+ immediately prior to activation (0→1.2 mM Mg^2+). (a) Results for human effector memory (EM) and (b) for human naïve CD8 T cells. Glycolytic switch was quantified by subtracting […] measurements. (c) Flow cytometric analysis of surface activation markers on human EM CD8 T cells 24 hours after activation by plate-bound anti-CD3 Ab and soluble anti-CD28 Ab, in 1.2 mM and 0 mM Mg^2+ media, respectively. (d) Abundance of inflammatory cytokines in corresponding EM CD8 T cell culture supernatants, determined by CBA. (e) CD11a (LFA-1) surface expression on human naïve and EM CD8 T cells as well PHA T cell blasts. Flow cytometry-based assessment of total LFA-1 expression assessed by mAb TS2/4 (f), closed conformation of αL by mAb HI111 (g), extended conformation of LFA-1 by mAb Kim127 (h), open head-piece conformation of LFA-1 by mAb m24 (i), phosphorylation of focal adhesion kinase (FAK) […] as well TNF expression (k)±TCR-induced activation in different extracellular Mg^2+ concentrations. (l) Flow cytometry-based assessment of LFA-1 with open-head piece conformation on human EM and naïve CD8 T cells using the open head-piece reporter mAb m24. (m) Assessment of glycolytic switch of EM CD8 T cells. (n) Assessment of glycolytic switch of naïve CD8 T cells. […] Naïve CD8 T cells were activated with in house generated anti-CD3/anti-CD28 coated microbeads. Polybead microspheres ([…], Polyscience […]) were incubated with 1 μg anti-CD3 Ab and 10 μg anti-CD28 Ab. […] Primary human T cells were activated for 24 h and PHA-blasts for 4 h. For analysis of surface markers, T cells were harvested at indicated time points, washed once in cold PBS and, if required, stained with Fixable Viability Dyes for 15 min at 4° C. Surface markers were stained with appropriate antibodies for 20 min at 4° C.
A general note: Flow cytometry measures light scatter and fluorescence of single cells or particles in a stream.

Test [2] relates to REP T cells. Kind of test: FAK phosphorylation and CD107a degranulation of REP T cells co-incubated with T2 target cells. Format: cell-based, human. Conditions: pulsed T2 target cells; presence vs absence of extracellular Mg^2+. As for the experimental part: FIG. 3: Magnesium regulates LFA-1 mediated T cell activation and cytotoxicity as well BiTE- and CAR T-cell functionality. (a) Glycolytic switch of murine WT and LFA-1^−/− CTLs upon injection of anti-CD3/28 Ab in medium containing 1.2 mM Mg^2+ and 0 mM Mg^2+, presented as quantification of summarized data with n=4 mice. (b) Calcium flux in WT and LFA-1^−/− Jurkat T cells stimulated with anti-CD3 Ab in 1.2 mM and 0 mM Mg^2+ medium, respectively. Cells were loaded with Fluo4, and signal intensity as recorded by plate reader, was normalized to unstimulated baseline values. […] Quantified results of n=3 mice with 3 technical replicates each. (d) Caspase-3 activity in EL4 target cells after co-culture with murine WT and LFA-1^−/− CTLs under the conditions as in (c) for 4 hours, in presence of 10 μg/ml PHA. The effector to target cell ratio was 3:1. Results are quantified of n=3 mice with 3 technical replicates each. (e) Representative CD11a (LFA-1) surface expression on human naïve and EM CD8 T cells, PHA T cell blasts and REP T cells, assessed by flow cytometry. Flow cytometry-based assessment of inactivate LFA-1 with bent conformation (f), extended conformation with β2 leg extension (g), LFA-1 with open head-piece (h), phosphorylation of FAK, expression of degranulation marker CD107a (j) on REP T cells after co-incubation with T2 target cells (pulsed with 10^−8 M 9c peptide) in same condition as in (c). The effector to target cell ratio was 1:1. Data is presented as quantified results of n=5 healthy donors (f, g, h), n=3 healthy donors with 2 technical replicates each or n=1 healthy donor with 4 technical replicates (j). […] Data is presented as quantified results of n=1 healthy donor with 4 technical replicates. […] Cytotoxicity is reported as total area under the curve of the fluorescence driven by incorporation of cytotoxic green reagent in dead target cells (green area per μm^2). […] (p) Abundance of IFNγ in cell culture supernatants corresponding to the conditions depicted in (o) at 24 hours was determined by ELISA (n=8, 3 independent experiments). […]

For `[Mg+2]` [Mg^2+, Magnesium], in test [1], the CD25 surface expression result is given as “failed to upregulate”, the CD69 surface expression result was “failed to upregulate”, the CD71 surface expression result was “failed to upregulate” and the CD98 surface expression result is recorded as “failed to upregulate”. Besides, the “CD107a surface expression (degranulation)” value in test [1] is given as “failed to upregulate”. Further, in test [2], the “Degranulation (CD107a) of REP T cells” value was “significantly increased” and the “FAK phosphorylation in REP T cells” value is recorded as “significantly increased”.
